Results: patent US12685725B2, “Pridopidine for the treatment of mitochondrial-associated diseases and disorders and endoplasmic reticulum (ER) stress” (PRILENIA NEUROTHERAPEUTICS LTD., priority 2019, dated 2026)

Assays:
[1] = test system: CHOP, GADD34, ATF6, XBP1s in cells expressing myc-Htt96Q or myc-Htt20Q
Method: Total cell RNA was extracted with TRIzol reagent (Invitrogen) according to the manufacturer's instructions. […] Real-time PCR was carried out using a CFX Connect Real-Time PCR Detection System (BioRad) and the amplifications were done using the SYBR Green PCR Master Mix (Cat.No. pb089617-100-1) (Pcrbio). Reactions were run in triplicates in three independent experiments. Housekeeping gene GAPDH was used as an internal control to normalize the variability of expression levels.
(§1) Cells were lysed in PBS containing 1% Triton X-100, 0.5% sodium deoxycholate with protease inhibitors and centrifuged to pellet insoluble aggregates, debris and nuclei. Phosphatase inhibitor cocktail 2 and 3 and 10 mM […] phosphate were added to the lysis buffer to inhibit phosphatases for detection of phosphorylated proteins. Supernatants were separated from pellets and incubated in loading buffer for 5 min at 100° C., pellets were incubated for 10 min at 100° C. After SDS-PAGE and transfer to nitrocellulose membrane, blocking was done in 5% low-fat milk and 0.1% Tween-20 in PBS for 1 h. Incubation with the primary antibody was overnight at 4° C. and after three washes in 0.1% Tween-20 in PBS, incubation with the appropriate secondary antibody was for 1 h at room temperature. After washing, enhanced chemiluminescence assay was performed and the membrane was exposed and quantified in a Bio-Rad ChemiDocXRS Imaging System (Bio-Rad, Hercules, CA).

[2] = test system: STHdh^Q7/7 cells expressing Htt96Q-mCherry or Htt20Q-mCherry
Method: (§2) Transfections of HEK 293 cells were carried out according to the calcium phosphate method. STHdh^Q7/7 cells are a murine striatal cell line with a stable knock-in of the full-length wild type (WT) human Htt containing a polyglutamine stretch of 7 glutamines (Trettel et al. 2000). […] No cell line used is listed as a commonly misidentified cell line. Cell lines were not authenticated. To reduce any risk of cross-contamination they were grown for a limited number of passages. Transient transfections of NIH 3T3 and STHdh^Q7/7 cells were performed using an MP-100 Microporator (Digital Bio) or ViaFect™ Transfection Reagent (Cat.No. E4981) (Promega), according to the manufacturer's protocols.
(§3) Briefly, cells grown for 24 h after transfection on coverslips in 24-well plates were fixed with 3% paraformaldehyde, followed by blocking with 50 mM glycine in PBS and normal goat IgG in PBS/2% BSA. The cells were incubated with primary antibodies for 1 h, washed and incubated for 30 min with secondary antibodies, followed by washes. Nuclei were stained with 4′,6-diamidino-2-phenylindole (Cat.No. F6057) (Sigma). Confocal microscopy was done on a Zeiss laser scanning confocal microscope (LSM 510; Carl Zeiss, Jena, Germany) as described previously. ImageJ was used to quantify fluorescence intensity in images of treated individual cells compared to untreated cells with and without Htt96Q-mCherry aggregates and to calculate Mander's coefficients for colocalization studies.

[3] = test system: mitochondrial complexes II, III and IV; conditions: 30 mg/kg/day oral gavage 45 days
Method: 1.5-month-old WT and hemizygous YAC128 mice (males and females in equal proportion) were divided into four groups. […] Mice were divided 4 animals per cage enriched in corn-husk nesting material and paper rolls, each cage representing one individual experiment, for a total of 9 animals per group. Pridopidine was dissolved in deionized sterile water. Animals were weighed every week and the volume of treatment adjusted accordingly. Mice were behaviorally tested in rotarod immediately before commencing treatment and on the day before finishing treatment. Tests were conducted blindly at a set time during the day. Mice were sacrificed 24 h after administration of the final pridopidine dose, and mitochondria isolated from the striatum.
The final homogenate was then centrifuged at 1,100×g for 2 min, at 4° C. […] The mitochondrial fraction was pelleted by centrifugation at 18,500×g for 10 min at 4° C. The pellet was then resuspended in 1 mL of mitochondria washing buffer (MWB: in mM, 250 sucrose, 5 HEPES-KOH, 0.1 EGTA, pH 7.2) and centrifuged at 10,000×g for 5 min at 4° C. Mitochondrial pellet was again resuspended in a small volume of ice-cold MWB, to create a concentrated mitochondria solution, and kept on ice for further analysis for a maximum of 2 hours. Protein content of isolated mitochondria was quantified by Bio-Rad assay (Bio-Rad, catalog no. 5000006).
After centrifugation, the volume was adjusted to 450 μL and the Seahorse plate was equilibrated in a humidified C02-free incubator at 37° C. for 10-12 min.

[4] = test system: S1R-dependence of eIF2α phosphorylation in HEK 293 cells; conditions: 8 h
Method: HEK 293 cells were transfected with plasmids carrying Cas9 and 3 different guide RNAs (gRNA) targeting human Sigma1-R and a control gRNA. Ten days after transfection and selection with puromycin, cell lysates of the pools of selected cells were tested for S1R knockout by immunoblotting. […] Subsequent cloning by dilution produced, after 4 weeks, several clones with complete knockout of Sigma1-R for each gRNA.
Cells were lysed in PBS containing 1% Triton X-100, 0.5% sodium deoxycholate with protease inhibitors and centrifuged to pellet insoluble aggregates, debris and nuclei. Phosphatase inhibitor cocktail 2 and 3 and 10 mM 0-glycerol phosphate were added to the lysis buffer to inhibit phosphatases for detection of phosphorylated proteins. Supernatants were separated from pellets and incubated in loading buffer for 5 min at 100° C., pellets were incubated for 10 min at 100° C. After SDS-PAGE and transfer to nitrocellulose membrane, blocking was done in 5% low-fat milk and 0.1% Tween-20 in PBS for 1 h. Incubation with the primary antibody was overnight at 4° C. and after three washes in 0.1% Tween-20 in PBS, incubation with the appropriate secondary antibody was for 1 h at room temperature. After washing, enhanced chemiluminescence assay was performed and the membrane was exposed and quantified in a Bio-Rad ChemiDocXRS Imaging System (Bio-Rad, Hercules, CA).

S1R in STHdh^Q7/7 cells = S1R in STHdh^Q7/7 cells (Mus musculus, UniProt O55242); conditions: 20 h; P (150 μM vs. 0)<0.05
Method: as §2, §1, §3

[5] = test system: cortico-striatal co-cultures (YAC128); conditions: Y128, 1 μM, n=4
Method: For cortico-striatal co-cultures, brains were removed and transferred to Hibernate E medium (Thermo Fisher Sci., catalog no: A1247601) for up to 24 h. […] The cortex and striatum were micro-dissected in ice-cold Hank's balanced salt solution (HBSS; Gibco), then diced and pooled per genotype. […] The dissociated tissues were centrifuged at 145×g for 5 min and the pellet was then triturated with a pipette five to six times. […] The cells were fed with ⅓ volume fresh medium every fifth day.
The stained cells were washed twice with PBS and fixed with ice-cold methanol for 15 min at room temperature. Mitochondria were visualized using the SP5 confocal microscope (Leica). 8 random areas were sampled. Circularity was determined using ImageJ with an internal plugin.

[6] = test system: Htt96Q aggregates in S1R+/+ and S1R−/− HEK 293 cells; conditions: 24 h
Method: HEK 293 cells were grown on 60 mm plates and transfected for the expression of myc-Htt96Q. Cells were collected 24 hours post-transfection. After washing with 1×PBS cells were resuspended in 100 μl of 1×PBS+ protease inhibitor cocktail. Sonication was done in a sonic bath for 3×10 sec (amp5-6), leaving on ice for 30 sec between the sonications. Cell debris were removed by centrifugation at 16,000×g for 15 min and protein concentration was measured in the supernatant using the BCA method. Samples containing 50 μg total protein were taken and the volume adjusted to 100 μl with 1% SDS in PBS. After incubation for 5 min at 100° C. sample duplicates were loaded on the slots of a nitrocellulose membrane pre-wet with 1% SDS in PBS in a dot-blotting apparatus. Slots were washed twice with 1 ml 1% SDS in PBS and the membrane was transferred to 5% milk blocking solution. Immunoblotting was performed as described above.

HD lymphoblasts = conditions: 5 μM, H2O2-challenged conditions, p=0.0001
Method: H2O2 (9.8 M stock) was dissolved in cell culture medium prior to experimentation. Primary neurons and lymphoblasts cultured on PDL-coated plates were treated with H2O2 (0-1 mM) for up to 6 hours. Oxidative stress was measured using the CellROX red reagent (Life Technologies, catalog no. C10422). Cells were treated with 5 μM CellRox red in complete medium, then incubated for 30 minutes. The cells were then washed with PBS and imaged on a Zeiss Axiovert inverted microscope (Zeiss, Jena, Germany) using a 10× objective. Exposure settings were maintained for all samples. Eight random fields were sampled, and the fluorescence intensity was measured using ImageJ software and normalized to the DAPI signal.

[7] = cells expressing mutant Htt96Q, 48 h

Sequence of S1R in STHdh^Q7/7 cells (O55242 whole entry): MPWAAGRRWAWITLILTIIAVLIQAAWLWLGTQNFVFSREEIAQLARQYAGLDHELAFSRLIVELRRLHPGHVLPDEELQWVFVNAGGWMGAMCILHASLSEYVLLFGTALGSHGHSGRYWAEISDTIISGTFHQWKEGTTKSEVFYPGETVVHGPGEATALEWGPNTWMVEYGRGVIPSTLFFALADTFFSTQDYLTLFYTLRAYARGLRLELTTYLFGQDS

CCCN1CCC(c2cccc(S(C)(=O)=O)c2)CC1 [Pridopidine, 4-[3-(methylsulfonyl)phenyl]-1-propyl-piperidine]
reduction in ATF6 fragment ([1]; Htt96Q-expressing cells, 3 μM): 35% | reduction in XBP-1s mRNA (IRE1 pathway) ([1]; Htt96Q-expressing cells, 3 μM): 25% | CHOP and GADD34 levels ([1]; cells expressing Htt20Q): does not affect these factors | reduction of CHOP levels [1, 7]: 2.5 fold | reduction of GADD34 levels [1, 7]: 7 fold | H2a-GFP accumulation, of the untreated control ([2]; cells positive for mHtt (Htt96Q-mCherry) aggregates): 40% | ER stress (H2a-GFP relative intensity), dose dependence ([2]; cells with Htt96Q-mCherry aggregates, from 0.03 to 150 μM): significantly reduces ER stress in a dose-dependent manner | H2a-GFP levels ([2]; cells without aggregates or cells expressing Htt20Q-mCherry): does not alter H2a-GFP levels | percent of cells that show visible Htt96Q-mCherry aggregates ([2]; expression of Htt96Q-mCherry for 24 h): unchanged | activity of mitochondrial complex IV (OCR) ([3]; YAC128 mice): shows a similar decreasing trend | activity of mitochondrial complex III ([3]; YAC128 mice, p=0.0084): normalizes the activity of mitochondrial complexes H and III | activity of mitochondrial complex II ([3]; YAC128 mice, p=0.0306): normalizes the activity of mitochondrial complexes H and III | mitochondrial complex activities ([3]; wild-type mice): does not affect mitochondrial complex activities | eIF2α-P levels ([4]; S1R expressing control clone expressing Htt96Q): significantly reduces eIF2α-P levels | concentration of maximal effect on eIF2α phosphorylation ([4]; control clone expressing myc-Htt96Q): 3 µM | Triton-insoluble levels of endogenous S1R (S1R in STHdh^Q7/7 cells): also those of the endogenous S1R | mitochondrial morphology (percentage of circular and elongated mitochondria) [5]: corrects Y128 morphology to WT levels | increase of the amount of Htt96Q in SDS-insoluble aggregates ([6]; S1R+/+ cells): up to 35% | effect on Htt96Q in SDS-insoluble aggregates ([6]; S1R−/− cells): abolished | decrease of ROS levels (CellRox) (HD lymphoblasts): 57%
